Here are results for ten compounds from US10208067B2, “Compounds for treating spinal muscular atrophy” (Hoffmann-La Roche Inc., priority 2015, dated 2019).

Assay [1] has as its system full length SMN2 minigene mRNA (HEK293H cells stably transfected with SMN2-A minigene). The experiment in a line: RT-qPCR assay for SMN2 minigene pre-mRNA splicing in cultured cells. The assay is classed as cell-based. Conditions: Homo sapiens, HEK293-H, 24 hours. (In general: Real-time PCR tracks product formation cycle by cycle.)
Assay [2] relates to SMN protein in SMA patient fibroblast cells (GM03813). The experiment in a line: SMN protein assay (HTRF) in cultured cells. The assay is classed as cell-based. To be noted: Homo sapiens, SMA Type 1 patient fibroblasts, 48 hours; for EC (1.5-fold): concentration producing 1.5 times SMN protein vs vehicle, read-out: EC1.5x SMN protein; for maximal fold induction: relative to vehicle control, read-out: max. fold increase of SMN protein. The protocol:
The SMN HTRF (homogeneous time resolved fluorescence) assay is used to quantify the level of SMN protein in SMA patient fibroblast cells treated with test compounds. Materials used and respective sources are listed below in Table 4.
Cells are thawed and cultured in DMEM-10% FBS for 72 hours. Cells are trypsinized, counted and re-suspended to a concentration of 25,000 cells/mL in DMEM-10% FBS. The cell suspensions are plated at 5,000 cells per well in a 96 well microtiter plate and incubated for […]. […] 1 μL of test compound solution is transferred to cell-containing wells and cells are incubated for 48 hours in a cell culture incubator (37° C., 5% CO2, 100% relative humidity). Triplicate samples are set up for each test compound concentration. After 48 hours, the supernatant is removed from the wells and 25 μL of the RIPA lysis buffer, containing protease inhibitors, is added to the wells and incubated with shaking at room temperature for 1 hour. 25 μL of the diluent is added and then 35 μL of the resulting lysate is transferred to a 384-well plate, where each well contains 5 μL of the antibody solution (1:100 dilution of anti-SMN d2 and anti-SMN cryptate in SMN reconstitution buffer). The plate is centrifuged for 1 minute to bring the solution to the bottom of the wells, then incubated overnight at room temperature. Fluorescence for each well of the plate at 665 nm and 620 nm is measured on an EnVision multilabel plate reader (Perkin-Elmer).
The normalized fluorescence signal is calculated for each sample, Blank and vehicle control well by dividing the signal at 665 nm by the signal at 620 nm. Normalizing the signal accounts for possible fluorescence quenching due to the matrix effect of the lysate. The ΔF value (a measurement of SMN protein abundance as a percent value) for each sample well is calculated by subtracting the normalized average fluorescence for the Blank control wells from the normalized fluorescence for each sample well, then dividing this difference by the normalized average fluorescence for the Blank control wells and multiplying the resulting value by 100. The ΔF value for each sample well represents the SMN protein abundance from test compound-treated samples. The ΔF value for each sample well is divided by the ΔF value for the vehicle control wells to calculate the fold increase in SMN protein abundance relative to the vehicle control. Table 5 provides EC1-5× concentrations for SMN protein expression that was obtained from the 7-point concentration data generated according to the above procedure for particular compounds of the present invention.
Table 6 provides the maximum fold increase of SMN protein that was obtained from the 7-point concentration data generated according to the above procedure for particular compounds of the present invention
Background: In TR-FRET formats the signal depends on donor and acceptor labels being close together.

Setting [3] is: concentration increasing full length SMN2 minigene mRNA 1.5-fold vs vehicle, read-out: EC1.5x minigene.
[4] abbreviates: Table 3 (title: production of full length SMN2 minigene mRNA), read-out: EC1.5x SMN protein.

Like-named read-outs stand apart in the source and are kept apart here.

Take `Cc1nc2ncc(-c3cc(=O)n4cc(N5CC6CN(C)CC6C5)ccc4n3)cn2n1` (stereo not drawn) [Example 8]: in assay [1] (setting [3]), the EC (1.5-fold) was determined as 0.0659 µM. Besides, in assay [2], the EC (1.5-fold) was determined as 0.313 µM and the maximal fold induction amounted to 1.85.

Take `Cc1nc2ccc(-c3cc(=O)n4cc(N5CC6CN(C)CC6C5)ccc4n3)nn2n1` (stereo not drawn) [Example 33, 7-(2-methyl-1,3,3a,4,6,6a-hexahydropyrrolo[3,4-c]pyrrol-5-yl)-2-(2-methyl-[1,2,4]triazolo[1,5-b]pyridazin-6-yl)pyrido[1,2-a]pyrimidin-4-one]: the EC (1.5-fold) in assay [1] (setting [4]) worked out at 0.0038 µM; in assay [2], 0.0151 µM. For the same compound, the maximal fold induction in assay [2] stood at 1.67.

For `Cc1nc2ccc(-c3cc(=O)n4cc(N5C[C@@H]6C[C@H]7CNC[C@]76C5)ccc4n3)nn2n1` [Example 47, 7-((3aR,4aR,7aS)-hexahydro-1H-cyclobuta[1,2-c:1,4-c′]dipyrrol-2(3H)-yl)-2-(2-methyl-[1,2,4]triazolo[1,5-b]pyridazin-6-yl)-4H-pyrido[1,2-a]pyrimidin-4-one], the EC (1.5-fold) in assay [1] (setting [4]) was determined as 0.0041 µM. In addition, in assay [2], the EC (1.5-fold) was found to be 0.0249 µM and the maximal fold induction amounted to 1.87.

Consider `Cc1nc2ccc(-c3cc(=O)n4cc(N5CCN(C)CC5)cc(C)c4n3)nn2n1` [Example 27, 9-methyl-7-(4-methylpiperazin-1-yl)-2-(2-methyl-[1,2,4]triazolo[1,5-b]pyridazin-6-yl)pyrido[1,2-a]pyrimidin-4-one], for which the EC (1.5-fold) in assay [1] (setting [4]) came out at 0.014 µM. Besides, in assay [2], the EC (1.5-fold) was 0.0347 µM and the maximal fold induction was found to be 1.74.

For the compound `Cc1nc2ncc(-c3cc(=O)n4cc(N5C[C@@H](C)N[C@@H](C)C5)ccc4n3)cn2n1` [Example 2, 7-[(3R,5S)-3,5-dimethylpiperazin-1-yl]-2-(2-methyl-[1,2,4]triazolo[1,5-a]pyrimidin-6-yl)pyrido[1,2-a]pyrimidin-4-one], in assay [1] (setting [3]), the EC (1.5-fold) is 0.067 µM. In assay [2], the EC (1.5-fold) turned out to be 0.508 µM and the maximal fold induction amounted to 1.93.

`Cc1nc2ncc(-c3cc(=O)n4cc(N5CCN[C@@H](C)C5)ccc4n3)cn2n1` [Example 16, 7-[(3S)-3-methylpiperazin-1-yl]-2-(2-methyl-[1,2,4]triazolo[1,5-a]pyrimidin-6-yl)pyrido[1,2-a]pyrimidin-4-one]: the EC (1.5-fold) was 0.115 µM in assay [1] (setting [3]) and 0.281 µM in assay [2]. Further, the maximal fold induction in assay [2] is 1.71.

Turning to `Cc1nc2ccc(-c3cc(=O)n4cc(N5CCN[C@H](C)C5)ccc4n3)nn2n1` [Example 17, 7-[(3R)-3-methylpiperazin-1-yl]-2-(2-methyl-[1,2,4]triazolo[1,5-b]pyridazin-6-yl)pyrido[1,2-a]pyrimidin-4-one], the EC (1.5-fold) in assay [1] (setting [3]) stood at 0.0191 µM. For the same compound, in assay [2], the EC (1.5-fold) is 0.0932 µM and the maximal fold induction was 1.82.

Consider `Cc1nc2ccc(-c3cc(=O)n4cc(N5CCN6CCC[C@@H]6C5)cc(C)c4n3)nn2n1` [Example 34, 7-[(8aR)-3,4,6,7,8,8a-hexahydro-1H-pyrrolo[1,2-a]pyrazin-2-yl]-9-methyl-2-(2-methyl-[1,2,4]triazolo[1,5-b]pyridazin-6-yl)pyrido[1,2-a]pyrimidin-4-one], for which, in assay [1] (setting [4]), the EC (1.5-fold) amounted to 0.0028 µM. Moreover, in assay [2], the EC (1.5-fold) turned out to be 0.0191 µM and the maximal fold induction was 1.8.

With `Cc1nc2ncc(-c3cc(=O)n4cc(N5CCNC6(CC6)C5)ccc4n3)cn2n1` [Example 13, 7-(4,7-diazaspiro[2.5]octan-7-yl)-2-(2-methyl-[1,2,4]triazolo[1,5-a]pyrimidin-6-yl)pyrido[1,2-a]pyrimidin-4-one], the EC (1.5-fold) in assay [1] (setting [3]) was found to be 2.55 µM. In assay [2], the EC (1.5-fold) was found to be 14.1 µM and the maximal fold induction was determined as 1.52.

As to `Cc1nc2ncc(-c3cc(=O)n4cc(N5CC6(CNC6)C5)ccc4n3)cn2n1` [Example 7, 7-(2,6-diazaspiro[3.3]heptan-2-yl)-2-(2-methyl-[1,2,4]triazolo[1,5-a]pyrimidin-6-yl)pyrido[1,2-a]pyrimidin-4-one], the EC (1.5-fold) was determined as 0.107 µM in assay [1] (setting [3]) and 0.247 µM in assay [2]. In assay [2], the maximal fold induction came to 1.78.
